In ChEMBL document CHEMBL5241129, “Design and synthesis of novel orexin 2 receptor agonists with a 1,3,5‑trioxazatriquinane skeleton” (Bioorg Med Chem Lett, 2023):
Calls of active or inactive are those of the source. The rule behind the calls is not given here.

Molecular target: T1, Orexin/Hypocretin receptor type 1 (Homo sapiens) (UniProt O43613)
T1 sequence (whole entry): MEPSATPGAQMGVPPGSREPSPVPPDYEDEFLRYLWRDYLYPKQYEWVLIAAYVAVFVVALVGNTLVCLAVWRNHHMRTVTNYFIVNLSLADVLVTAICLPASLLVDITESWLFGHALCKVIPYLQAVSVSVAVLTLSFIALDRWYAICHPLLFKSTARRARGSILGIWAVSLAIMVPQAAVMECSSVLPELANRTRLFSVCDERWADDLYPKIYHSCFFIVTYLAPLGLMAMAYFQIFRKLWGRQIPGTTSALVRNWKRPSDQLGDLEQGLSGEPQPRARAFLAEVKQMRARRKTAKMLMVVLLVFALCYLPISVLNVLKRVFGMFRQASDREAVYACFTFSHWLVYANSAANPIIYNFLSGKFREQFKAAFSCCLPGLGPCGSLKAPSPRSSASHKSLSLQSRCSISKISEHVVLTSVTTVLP
Assay: Antagonist activity at OX1R (unknown origin) expressed in CHO cells at 10 uM in presence of orexin A by cell based calcium assay
Details: not given

| Compound | Activity |
| --- | --- |
| CCCCCCCCS(=O)(=O)NC[C@]1(C)O[C@@H]2CO[C@H]3N2[C@@H]1O[C@@]3(C)CNS(=O)(=O)CCCCCCCC (stereo in doubt; 28a) | inactive |
| C[C@]1(CNS(C)(=O)=O)O[C@@H]2CO[C@H]3N2[C@@H]1O[C@]3(C)CNS(C)(=O)=O | inactive |
| CC(C)(C)OC(=O)NC[C@@]1(C)O[C@@H]2CO[C@H]3N2[C@@H]1O[C@]3(C)CNC(=O)OC(C)(C)C (racemic) | inactive |
| CCCS(=O)(=O)NC[C@@]1(C)O[C@@H]2CO[C@H]3N2[C@@H]1O[C@]3(C)CNS(=O)(=O)CCC | inactive |
| CCCCS(=O)(=O)NC[C@@]1(C)O[C@@H]2CO[C@H]3N2[C@@H]1O[C@]3(C)CNS(=O)(=O)CCCC | inactive |
| CCCCCCCCS(=O)(=O)NC[C@@]1(C)O[C@@H]2CO[C@H]3N2[C@@H]1O[C@]3(C)CNS(=O)(=O)CCCCCCCC (racemic) | inactive |

Molecular target: T2, Orexin receptor type 2 (Homo sapiens, UniProt O43614)
T2 sequence (O43614 whole entry): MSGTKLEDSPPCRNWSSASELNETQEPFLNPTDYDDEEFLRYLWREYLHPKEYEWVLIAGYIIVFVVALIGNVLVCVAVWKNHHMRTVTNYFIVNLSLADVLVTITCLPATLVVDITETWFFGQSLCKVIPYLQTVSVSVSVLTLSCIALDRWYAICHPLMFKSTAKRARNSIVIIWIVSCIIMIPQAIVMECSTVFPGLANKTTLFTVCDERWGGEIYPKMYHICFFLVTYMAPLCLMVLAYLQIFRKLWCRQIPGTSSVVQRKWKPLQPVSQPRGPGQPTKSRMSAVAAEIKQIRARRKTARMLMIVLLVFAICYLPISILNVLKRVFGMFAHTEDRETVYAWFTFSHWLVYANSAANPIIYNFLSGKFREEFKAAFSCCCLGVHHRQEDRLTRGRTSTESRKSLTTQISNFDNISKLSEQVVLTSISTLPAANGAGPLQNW
Assay: Agonist activity at OX2R (unknown origin) expressed in CHO cells by cell based calcium assay
Details: not given

| Compound | EC50 |
| --- | --- |
| CCCCCCCCS(=O)(=O)NC[C@]1(C)O[C@@H]2CO[C@H]3N2[C@@H]1O[C@@]3(C)CNS(=O)(=O)CCCCCCCC (stereo in doubt; (+)-28d) [listing 1 of 2 here] | 1620 nM |
| CCCCCCCCS(=O)(=O)NC[C@@]1(C)O[C@H]2CO[C@@H]3N2[C@H]1O[C@]3(C)CNS(=O)(=O)CCCCCCCC | 2420 nM |

Molecular target: T1, Orexin/Hypocretin receptor type 1 (Homo sapiens)
Assay: Agonist activity at OX1R (unknown origin) expressed in CHO cells at 10 uM by cell based calcium assay
Details: not given

| Compound | Activity |
| --- | --- |
| C[C@]1(CNS(=O)(=O)c2ccccc2)O[C@H]2CO[C@@H]3N2[C@H]1O[C@]3(C)CNS(=O)(=O)c1ccccc1 | inactive |

Molecular target: T1, Orexin/Hypocretin receptor type 1 (Homo sapiens)
Assay: Agonist activity at OX1R (unknown origin) expressed in CHO cells at 10 uM by cell based calcium assay relative to orexin A
Details: not given

| Compound | Emax |
| --- | --- |
| CCCCCCCCS(=O)(=O)NC[C@]1(C)O[C@@H]2CO[C@H]3N2[C@@H]1O[C@@]3(C)CNS(=O)(=O)CCCCCCCC (stereo in doubt; 28a) | 11.8% |
| CCCCCCCCS(=O)(=O)NC[C@@]1(C)O[C@@H]2CO[C@H]3N2[C@@H]1O[C@@]3(C)CNS(=O)(=O)CCCCCCCC | 3.86% |
| CCCCCCCCS(=O)(=O)NC[C@@]1(C)O[C@H]2CO[C@@H]3N2[C@H]1O[C@]3(C)CNS(=O)(=O)CCCCCCCC | 5.29% |
| C[C@]1(CNS(C)(=O)=O)O[C@@H]2CO[C@H]3N2[C@@H]1O[C@]3(C)CNS(C)(=O)=O | 5.66% |
| CC(C)(C)OC(=O)NC[C@]1(C)O[C@@H]2CO[C@H]3N2[C@@H]1O[C@@]3(C)CNC(=O)OC(C)(C)C (stereo in doubt; 20a) | 30.1% |
| CCCS(=O)(=O)NC[C@@]1(C)O[C@@H]2CO[C@H]3N2[C@@H]1O[C@]3(C)CNS(=O)(=O)CCC | 14.2% |
| CC(C)(C)OC(=O)NC[C@@]1(C)O[C@@H]2CO[C@H]3N2[C@@H]1O[C@@]3(C)CNC(=O)OC(C)(C)C | 2.21% |
| CCCCCCCCS(=O)(=O)NC[C@@]1(C)O[C@H]2N3[C@@H](CO[C@@H]31)O[C@@]2(C)CNS(=O)(=O)CCCCCCCC | 3.71% |
| CC(C)(C)NC(=O)NC[C@@]1(C)O[C@@H]2CO[C@H]3N2[C@@H]1O[C@]3(C)CNC(=O)NC(C)(C)C | 2.81% |
| CC(C)(C)OC(=O)NC[C@@]1(C)O[C@H]2N3[C@@H](CO[C@@H]31)O[C@@]2(C)CNC(=O)OC(C)(C)C | 4.94% |
| CCCCS(=O)(=O)NC[C@@]1(C)O[C@@H]2CO[C@H]3N2[C@@H]1O[C@]3(C)CNS(=O)(=O)CCCC | 11.1% |
| CCCCCCCCS(=O)(=O)N(C)C[C@@]1(C)O[C@@H]2CO[C@H]3N2[C@@H]1O[C@]3(C)CN(C)S(=O)(=O)CCCCCCCC | 2.65% |
| CC(C)(C)OC(=O)NC[C@]1(C)O[C@@H]2CO[C@H]3N2[C@@H]1O[C@@]3(C)CNC(=O)OC(C)(C)C (stereo in doubt; (+)-20d) | 5.07% |
| CC(C)(C)OC(=O)NC[C@@]1(C)O[C@H]2CO[C@@H]3N2[C@H]1O[C@]3(C)CNC(=O)OC(C)(C)C | 4.31% |
| CCCCCCCCS(=O)(=O)NC[C@]1(C)O[C@@H]2CO[C@H]3N2[C@@H]1O[C@@]3(C)CNS(=O)(=O)CCCCCCCC (stereo in doubt; (+)-28d) [listing 2 of 2 here] | 5.66% |
| CN(C[C@@]1(C)O[C@@H]2CO[C@H]3N2[C@@H]1O[C@]3(C)CN(C)C(=O)OC(C)(C)C)C(=O)OC(C)(C)C | 4.47% |
| CCCCCCCCS(=O)(=O)NC[C@@]1(C)O[C@@H]2CO[C@H]3N2[C@@H]1O[C@]3(C)CNS(=O)(=O)CCCCCCCC (racemic) | 23.6% |

Same assay, conditions: filed as agonist

| Compound | Emax |
| --- | --- |
| CC(C)(C)OC(=O)NC[C@@]1(C)O[C@@H]2CO[C@H]3N2[C@@H]1O[C@]3(C)CNC(=O)OC(C)(C)C (racemic) | 54% |

Molecular target: T3, Orexin receptor type 2 (Homo sapiens) (UniProt O43614)
T3 sequence (whole entry): T2 sequence (O43614 whole entry)
Assay: Agonist activity at OX2R (unknown origin) expressed in CHO cells at 10 uM by cell based calcium assay
Details: not given

| Compound | Activity |
| --- | --- |
| C[C@]1(CNC(=O)OCc2ccccc2)O[C@H]2CO[C@@H]3N2[C@H]1O[C@]3(C)CNC(=O)OCc1ccccc1 | inactive |
| C[C@@]1(CNC(=O)Cc2ccccc2)O[C@H]2CO[C@@H]3N2[C@H]1O[C@@]3(C)CNC(=O)Cc1ccccc1 | inactive |
| COC(=O)NC[C@]1(C)O[C@H]2CO[C@@H]3N2[C@H]1O[C@@]3(C)CNC(=O)OC | inactive |
| CC(=O)NC[C@]1(C)O[C@H]2CO[C@@H]3N2[C@H]1O[C@@]3(C)CNC(C)=O | inactive |
| CC(C)(C)C(=O)NC[C@]1(C)O[C@H]2CO[C@@H]3N2[C@H]1O[C@@]3(C)CNC(=O)C(C)(C)C | inactive |
| C[C@@]1(CNC(=O)OCC(Cl)(Cl)Cl)O[C@H]2CO[C@@H]3N2[C@H]1O[C@@]3(C)CNC(=O)OCC(Cl)(Cl)Cl | inactive |
| C[C@]1(CNC(=O)/C=C/c2ccccc2)O[C@H]2CO[C@@H]3N2[C@H]1O[C@]3(C)CNC(=O)/C=C/c1ccccc1 | inactive |
| COc1ccc(C(=O)NC[C@@]2(C)O[C@H]3CO[C@@H]4N3[C@H]2O[C@]4(C)CNC(=O)c2ccc(OC)cc2)cc1 | inactive |
| CC(C)(C)C(=O)NC[C@@]1(C)O[C@H]2CO[C@@H]3N2[C@H]1O[C@]3(C)CNC(=O)C(C)(C)C | inactive |
| C=CCOC(=O)NC[C@@]1(C)O[C@H]2CO[C@@H]3N2[C@H]1O[C@]3(C)CNC(=O)OCC=C | inactive |
| COc1ccc(C(=O)NC[C@]2(C)O[C@H]3CO[C@@H]4N3[C@H]2O[C@@]4(C)CNC(=O)c2ccc(OC)cc2)cc1 | inactive |
| COc1cccc(C(=O)NC[C@]2(C)O[C@H]3CO[C@@H]4N3[C@H]2O[C@@]4(C)CNC(=O)c2cccc(OC)c2)c1 | inactive |
| COc1ccccc1C(=O)NC[C@]1(C)O[C@H]2CO[C@@H]3N2[C@H]1O[C@@]3(C)CNC(=O)c1ccccc1OC | inactive |
| C[C@@]1(CNC(=O)OCc2ccccc2)O[C@H]2CO[C@@H]3N2[C@H]1O[C@@]3(C)CNC(=O)OCc1ccccc1 | inactive |
| C[C@]1(CNC(=O)Cc2ccccc2)O[C@H]2CO[C@@H]3N2[C@H]1O[C@]3(C)CNC(=O)Cc1ccccc1 | inactive |
| C[C@]1(CNS(=O)(=O)c2ccccc2)O[C@H]2CO[C@@H]3N2[C@H]1O[C@]3(C)CNS(=O)(=O)c1ccccc1 | inactive |
| C[C@]1(CNC(=O)c2ccccc2)O[C@H]2CO[C@@H]3N2[C@H]1O[C@]3(C)CNC(=O)c1ccccc1 | inactive |
| CC(=O)NC[C@@]1(C)O[C@H]2CO[C@@H]3N2[C@H]1O[C@]3(C)CNC(C)=O | inactive |
| C[C@]1(CNC(=O)CCc2ccccc2)O[C@H]2CO[C@@H]3N2[C@H]1O[C@]3(C)CNC(=O)CCc1ccccc1 | inactive |
| C=CCOC(=O)NC[C@]1(C)O[C@H]2CO[C@@H]3N2[C@H]1O[C@@]3(C)CNC(=O)OCC=C | inactive |
| C[C@]1(CNC(=O)OCC(Cl)(Cl)Cl)O[C@H]2CO[C@@H]3N2[C@H]1O[C@]3(C)CNC(=O)OCC(Cl)(Cl)Cl | inactive |
| COc1cccc(C(=O)NC[C@@]2(C)O[C@H]3CO[C@@H]4N3[C@H]2O[C@]4(C)CNC(=O)c2cccc(OC)c2)c1 | inactive |
| C[C@@]1(CNC(=O)c2ccccc2)O[C@H]2CO[C@@H]3N2[C@H]1O[C@@]3(C)CNC(=O)c1ccccc1 | inactive |
| C[C@@]1(CNC(=O)/C=C/c2ccccc2)O[C@H]2CO[C@@H]3N2[C@H]1O[C@@]3(C)CNC(=O)/C=C/c1ccccc1 | inactive |
| C[C@@]1(CNC(=O)CCc2ccccc2)O[C@H]2CO[C@@H]3N2[C@H]1O[C@@]3(C)CNC(=O)CCc1ccccc1 | inactive |
| COC(=O)NC[C@@]1(C)O[C@H]2CO[C@@H]3N2[C@H]1O[C@]3(C)CNC(=O)OC | inactive |
| COc1ccccc1C(=O)NC[C@@]1(C)O[C@H]2CO[C@@H]3N2[C@H]1O[C@]3(C)CNC(=O)c1ccccc1OC | inactive |

Molecular target: T4, Orexin/Hypocretin receptor type 1 (Homo sapiens, UniProt O43613)
T4 sequence (O43613 whole entry): T1 sequence (whole entry)
Assay: Antagonist activity at OX1R (unknown origin)
Details: not given

| Compound | Ki |
| --- | --- |
| COc1ccc(C(=O)Nc2cccc([C@]3(C)O[C@H]4CO[C@@H]5N4[C@H]3O[C@@]5(C)c3cccc(NC(=O)c4ccc(OC)cc4)c3)c2)cc1 | 5.23 nM |
| COc1ccc(C(=O)Nc2cccc([C@@]3(C)O[C@@H]4CO[C@H]5N4[C@@H]3O[C@]5(C)c3cccc(NC(=O)c4ccc(OC)cc4)c3)c2)cc1 | 2.17 nM |
